Assay results as given in article PMC5015447 (Biochemistry, 2016).
Where “and” joins values, the source holds several entries; their conditions need not be identical. Identical values can stand only once. Like-named read-outs stand apart in the source and are kept apart here.

How the values were obtained:
[1] = test system: cofactor-dependent phosphoglycerate mutase (dPGM); conditions: cited from earlier work
[2] = target: E. coli cofactor-dependent phosphoglycerate mutase (dPGM) (Escherichia coli, UniProt P62707); assay: biochemical; format: binding
dPGM R116A [3] = target: T1, dPGM R116A (Escherichia coli, UniProt P62707, R117A); assay: ATP binding by isothermal titration calorimetry, R116A; design: species or system E. coli
dPGM K99A [4] = target: T2, dPGM K99A (Escherichia coli, UniProt P62707, K100A); assay: Equilibrium unfolding of dPGM variant K99A with 1.0 mM ATP; format: binding, E. coli
dPGM K222A [5] = target: T3, dPGM K222A (Escherichia coli, UniProt P62707, K223A); assay: Equilibrium unfolding of dPGM variant K222A; format: binding, E. coli
dPGM R116A [6] = target: T1, dPGM R116A; assay: Equilibrium unfolding of dPGM variant R116A with 1.0 mM ATP; format: binding, E. coli
Wild-type dPGM = Wild-type dPGM (Escherichia coli, UniProt P62707); assay: ATP binding by isothermal titration calorimetry, wild-type dPGM; design: species or system E. coli
dPGM R115A [7] = target: T4, dPGM R115A (Escherichia coli, UniProt P62707, R116A); assay: Equilibrium unfolding of dPGM variant R115A with 1.0 mM ATP; format: binding, E. coli
S. cerevisiae dPGM = conditions: cited from earlier work
dPGM R115A [8] = target: T4, dPGM R115A; assay: ATP binding by isothermal titration calorimetry, R115A; design: species or system E. coli
dPGM K99A [9] = target: T2, dPGM K99A; assay: ATP binding by isothermal titration calorimetry, K99A; design: species or system E. coli
dPGM R9A [10] = target: T5, dPGM R9A (Escherichia coli, UniProt P62707, R10A); assay: ATP binding by isothermal titration calorimetry, R9A; design: species or system E. coli
dPGM R9A [11] = target: T5, dPGM R9A; assay: Equilibrium unfolding of dPGM variant R9A with 1.0 mM ATP; format: binding, E. coli
dPGM K222A [12] = target: T3, dPGM K222A; assay: ATP binding by isothermal titration calorimetry, K222A; design: species or system E. coli
[13] = ligand 1.0 mM, one global fit of all nucleotide data sets
[14] = 50 mM phosphate, global fit with no-ligand data
[15] = 50 mM phosphate, global fit with no-ligand data (shared m-value)

T3 sequence (P62707 whole entry K223A): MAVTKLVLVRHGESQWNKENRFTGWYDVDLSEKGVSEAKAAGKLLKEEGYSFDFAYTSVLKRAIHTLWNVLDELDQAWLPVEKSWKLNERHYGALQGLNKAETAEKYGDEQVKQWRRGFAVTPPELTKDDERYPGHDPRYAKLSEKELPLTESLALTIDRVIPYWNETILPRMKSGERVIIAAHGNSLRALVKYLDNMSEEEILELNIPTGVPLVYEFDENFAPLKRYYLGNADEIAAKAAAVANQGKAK
T5 sequence (P62707 whole entry R10A): as the sequence (P62707 whole entry K223A) above, with R10A, A223K counted along it
T4 sequence (P62707 whole entry R116A): as the sequence (P62707 whole entry K223A) above, with R116A, A223K counted along it
T2 sequence (P62707 whole entry K100A): as the sequence (P62707 whole entry K223A) above, with K100A, A223K counted along it
T1 sequence (P62707 whole entry R117A): as the sequence (P62707 whole entry K223A) above, with R117A, A223K counted along it
Sequence of E. coli cofactor-dependent phosphoglycerate mutase (dPGM) (P62707 whole entry): as the sequence (P62707 whole entry K223A) above, with A223K counted along it
Sequence of Wild-type dPGM (P62707 whole entry): as the sequence (P62707 whole entry K223A) above, with A223K counted along it

Nc1ncnc2c1ncn2[C@@H]1O[C@H](CO[P@](=O)(O)O[P@](=O)(O)O[P@@](=O)(O)S)[C@@H](O)[C@H]1O [ATPγS]
protein remaining intact after pulse proteolysis ([1]; E. coli lysate, 2.0 M urea, 1.0 mM ATPγS): a significant population of the protein remained intact

Nc1ncnc2c1ncn2[C@@H]1O[C@H](COP(=O)(O)O)[C@@H](O)[C@H]1O [AMP, adenosine monophosphate]
Kd ([2]; calculated with Eq. 6 from stability increase, ligand 1.0 mM): 240 ± 40 µM | effect on equilibrium unfolding (first unfolding transition) ([2]; ligand 1.0 mM): significantly shift the first unfolding transition to higher urea concentrations | ΔΔGI-N° = ΔGI-N°(ligand) – ΔGI-N°(no ligand) ([2]; ligand 1.0 mM): 1.96 (± 0.09) kcal/mol | ΔGI-N° [2, 13]: 13.6 (± 0.1) kcal/mol | ΔGU-I [2, 13]: 5.5 (± 0.2) kcal/mol

Nc1ncnc2c1ncn2[C@@H]1O[C@H](CO)[C@@H](O)[C@H]1O [Adenosine, adenosine]
effect on equilibrium unfolding (first unfolding transition) ([2]; ligand 1.0 mM): negligible | ΔΔGI-N° = ΔGI-N°(ligand) – ΔGI-N°(no ligand) ([2]; ligand 1.0 mM): 0.09 (± 0.07) kcal/mol | ΔGI-N° [2, 13]: 11.7 (± 0.1) kcal/mol | ΔGU-I [2, 13]: 5.6 (± 0.2) kcal/mol

Nc1nc2c(ncn2[C@@H]2O[C@H](COP(=O)(O)OP(=O)(O)OP(=O)(O)O)[C@@H](O)[C@H]2O)c(=O)[nH]1 [GTP, guanosine triphosphate]
Kd [2]: 0.4 ± 0.5 µM | effect on equilibrium unfolding (first unfolding transition) ([2]; ligand 1.0 mM): significantly shift the first unfolding transition to higher urea concentrations | ΔΔGI-N° = ΔGI-N°(ligand) – ΔGI-N°(no ligand) ([2]; ligand 1.0 mM): 9.3 (± 0.8) kcal/mol | ΔGI-N° [2, 13]: 20.9 (± 0.8) kcal/mol | ΔGU-I [2, 13]: 4.3 (± 0.6) kcal/mol

O=P(O)(O)OP(=O)(O)O [Pyrophosphate]
Kd [2]: 1.2 ± 0.2 µM | mI-N [2]: 2.47 (± 0.04) kcal mol^−1M^−1 | mU-I [2]: 1.62 (± 0.09) kcal mol^−1M^−1 | ΔGI-N° [2]: 16.8 (± 0.1) kcal/mol | ΔGU-I [2]: 5.2 (± 0.3) kcal/mol | ΔΔGI-N° [2]: 5.3 (± 0.1) kcal/mol

Nc1ncnc2c1ncn2[C@@H]1O[C@H](COP(=O)(O)OP(=O)(O)OP(=O)(O)O)[C@@H](O)[C@H]1O [ATP, adenosine triphosphate]
Kd (dPGM R116A [3]): 1.5 ± 0.3 µM | ΔΔGbind° = ΔGbind°(varient) – ΔGbind°(WT) (dPGM R116A [3]; R116A): –0.9 ± 0.2 kcal/mol | ΔGbind° (dPGM R116A [3]; R116A, calculated with Eq. 6 using [ATP] = 1.0 mM): 3.8 ± 0.1 kcal/mol | Kd [2]: 1.5 ± 0.5 µM | effective stability (ΔGeff) ([2]; 1.0 µM dPGM, 1.0 mM ATP, native conditions): 5.4 kcal/mol | Cm of the single apparent unfolding transition ([2]; 1.0 mM ATP): about 3.6 M urea | increase in stability per monomeric unit ([2]; 1.0 mM ATP): 3.5 kcal/mol | ΔG° of binding of ATP to the native dimer (N2) ([2]; 1.0 mM ATP, 2.5 M urea, per monomer): –3.5 kcal/mol | increase in ΔGI-N° (ΔGATP°) of wild type ([2]; 1.0 mM ATP, Table 1 fit): 7.0 ± 0.2 kcal/mol and 7.0 kcal/mol | maximum fraction of intermediate ([2]; 1.0 mM ATP, around 3.7 M urea): 0.12 | effect on ΔGU-I° ([2]; 1.0 mM ATP, called insignificant): 0.6 kcal/mol | ΔGU-N° ([2]; 1.0 mM ATP, fluorescence): 30.5 ± 0.8 kcal/mol | ΔGI-N ([2]; 1.0 mM ATP, fluorescence, global fit with no-ATP data, 30 µg/mL dPGM, pH 8.0): 18.5 ± 0.2 kcal/mol | effective free energy change, I to N2•L2 ([2]; 2.5 M urea, 1.0 mM ATP, 1 µM dPGM): –2.4 kcal/mol per monomer | ΔGN-I° for reaction from I to N2•L2 ([2]; 2.5 M urea, 1.0 mM ATP, from Table 1 and Eq. 2): –12.5 kcal/mol | ΔΔGI-N° = ΔGI-N°(ligand) – ΔGI-N°(no ligand) ([2]; ligand 1.0 mM): 7.7 (± 0.2) kcal/mol | ΔGI-N° [2, 13]: 19.3 (± 0.2) kcal/mol | ΔGU-I [2, 13]: 5.0 (± 0.3) kcal/mol | ΔGI-N° (dPGM K99A [4]): 18.5 ± 0.2 kcal/mol | ΔGU-I° (dPGM K99A [4]): 6 ± 1 kcal/mol | ΔΔGATP° = ΔGATP°(variant) – ΔGATP°(WT) (dPGM K99A [4]): –1.5 ± 0.2 kcal/mol | ΔGATP° = ΔGI-N°(1 mM ATP) - ΔGI-N°(No ATP) (dPGM K222A [5]): 9 ± 2 kcal/mol | ΔGI-N° (dPGM K222A [5]; 1.0 mM ATP): 21 ± 2 kcal/mol | ΔGU-I° (dPGM K222A [5]; 1.0 mM ATP): 4.4 ± 0.9 kcal/mol | ΔΔGATP° = ΔGATP°(variant) – ΔGATP°(WT) (dPGM K222A [5]; 1.0 mM ATP): 1.2 ± 1 kcal/mol | ΔGATP° = ΔGI-N°(1 mM ATP) - ΔGI-N°(No ATP) (dPGM R116A [6]): 5.4 ± 0.2 kcal/mol | ΔGI-N° (dPGM R116A [6]): 18.1 ± 0.2 kcal/mol | ΔGU-I° (dPGM R116A [6]): 5.8 ± 0.4 kcal/mol | ΔΔGATP° = ΔGATP°(variant) – ΔGATP°(WT) (dPGM R116A [6]): –0.8 ± 0.1 kcal/mol | Kd (Wild-type dPGM): 0.32 ± 0.07 µM | ΔGbind° (Wild-type dPGM; WT, calculated with Eq. 6 using [ATP] = 1.0 mM): 4.7 ± 0.1 kcal/mol | ΔGATP° = ΔGI-N°(1 mM ATP) - ΔGI-N°(No ATP) (dPGM R115A [7]): 4.8 ± 0.4 kcal/mol | ΔGI-N° (dPGM R115A [7]): 19.4 ± 0.3 kcal/mol | ΔGU-I° (dPGM R115A [7]): 5 ± 1 kcal/mol | ΔΔGATP° = ΔGATP°(variant) – ΔGATP°(WT) (dPGM R115A [7]): –1.1 ± 0.2 kcal/mol | stabilization by pulse proteolysis with purified dPGM ([1]; 1.0 mM ATP): stabilization | stabilization in energetics-based proteome screen (S. cerevisiae dPGM): stabilizes | Kd (dPGM R115A [8]): 7 ± 2 µM | ΔΔGbind° = ΔGbind°(varient) – ΔGbind°(WT) (dPGM R115A [8]; R115A): –1.8 ± 0.2 kcal/mol | ΔGbind° (dPGM R115A [8]; R115A, calculated with Eq. 6 using [ATP] = 1.0 mM): 2.9 ± 0.2 kcal/mol | Kd (dPGM K99A [9]): 7 ± 2 µM | ΔΔGbind° = ΔGbind°(varient) – ΔGbind°(WT) (dPGM K99A [9]; K99A): –1.8 ± 0.2 kcal/mol | ΔGbind° (dPGM K99A [9]; K99A, calculated with Eq. 6 using [ATP] = 1.0 mM): 2.9 ± 0.2 kcal/mol | Kd (dPGM R9A [10]): 5.5 ± 0.5 µM | ΔΔGbind° = ΔGbind°(varient) – ΔGbind°(WT) (dPGM R9A [10]; R9A): –1.7 ± 0.1 kcal/mol | ΔGbind° (dPGM R9A [10]; R9A, calculated with Eq. 6 using [ATP] = 1.0 mM): 3.1 ± 0.05 kcal/mol | ΔGATP° = ΔGI-N°(1 mM ATP) - ΔGI-N°(No ATP) (dPGM R9A [11]): 4.2 ± 0.2 kcal/mol | ΔGI-N° (dPGM R9A [11]): 16.6 ± 0.2 kcal/mol | ΔGU-I° (dPGM R9A [11]): 6.3 ± 0.5 kcal/mol | ΔΔGATP° = ΔGATP°(variant) – ΔGATP°(WT) (dPGM R9A [11]): –1.4 ± 0.1 kcal/mol | Kd (dPGM K222A [12]): 0.4 ± 0.1 µM | ΔΔGbind° = ΔGbind°(varient) – ΔGbind°(WT) (dPGM K222A [12]; K222A): –0.1 ± 0.2 kcal/mol | ΔGbind° (dPGM K222A [12]; K222A, calculated with Eq. 6 using [ATP] = 1.0 mM): 4.6 ± 0.1 kcal/mol

Nc1ncnc2c1ncn2[C@@H]1O[C@H](COP(=O)(O)OP(=O)(O)O)[C@@H](O)[C@H]1O [ADP, adenosine diphosphate]
Kd [2]: 18 ± 3 µM | effect on equilibrium unfolding (first unfolding transition) ([2]; ligand 1.0 mM): significantly shift the first unfolding transition to higher urea concentrations | ΔΔGI-N° = ΔGI-N°(ligand) – ΔGI-N°(no ligand) ([2]; ligand 1.0 mM): 4.8 (± 0.1) kcal/mol | ΔGI-N° [2, 13]: 16.4 (± 0.1) kcal/mol | ΔGU-I [2, 13]: 5.2 (± 0.2) kcal/mol

phosphate
ΔΔGI-N° ([2]; 50 mM phosphate): 5.9 (± 0.1) kcal/mol | ΔGI-N° [2, 14]: 17.3 (± 0.1) kcal/mol | ΔGU-I [2, 14]: 5.6 (± 0.3) kcal/mol | mI-N [2, 15]: 2.36 (± 0.03) kcal mol^−1M^−1 | mU-I [2, 15]: 1.82 (± 0.08) kcal mol^−1M^−1 | Kd ([2]; calculated with Eq. 6, 50 mM phosphate): 350 ± 60 µM
